Test results reported in ChEMBL document CHEMBL5321228, “Discovery of novel BTK PROTACs with improved metabolic stability via linker rigidification strategy” (Eur J Med Chem, 2023).
Active and inactive are the calls of the source. The rule behind the calls is not given here.

How the values were obtained:
[1] = target: T1, Protein cereblon/Tyrosine-protein kinase BTK (Homo sapiens, UniProt Q06187+Q96SW2); assay: PROTAC activity at CRBN/BTK in human JeKo-1 cells assessed as induction of BTK degradation at 1000 nM incubated for 24 hrs by Western blotting analysis relative to control; type: cell-based
Target sequence in this assay (Q06187 2-659 limits assumed): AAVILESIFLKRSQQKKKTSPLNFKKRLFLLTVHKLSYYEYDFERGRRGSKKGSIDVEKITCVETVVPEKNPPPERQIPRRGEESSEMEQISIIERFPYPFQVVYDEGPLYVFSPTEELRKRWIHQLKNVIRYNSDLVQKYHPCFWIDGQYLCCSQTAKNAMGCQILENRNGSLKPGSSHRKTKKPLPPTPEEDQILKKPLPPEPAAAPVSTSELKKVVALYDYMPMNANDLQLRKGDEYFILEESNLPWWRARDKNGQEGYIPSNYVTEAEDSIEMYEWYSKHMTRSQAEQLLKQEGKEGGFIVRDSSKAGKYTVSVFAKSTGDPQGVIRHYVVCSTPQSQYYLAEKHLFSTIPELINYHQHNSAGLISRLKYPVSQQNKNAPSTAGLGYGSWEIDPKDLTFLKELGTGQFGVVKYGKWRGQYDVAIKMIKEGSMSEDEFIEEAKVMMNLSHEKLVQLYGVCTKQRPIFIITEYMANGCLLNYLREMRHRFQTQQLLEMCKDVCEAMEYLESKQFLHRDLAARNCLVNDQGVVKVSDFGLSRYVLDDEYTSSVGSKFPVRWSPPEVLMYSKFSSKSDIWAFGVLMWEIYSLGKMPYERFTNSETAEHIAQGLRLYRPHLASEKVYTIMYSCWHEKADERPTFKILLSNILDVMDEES
Target sequence in this assay (Q96SW2 whole entry partner): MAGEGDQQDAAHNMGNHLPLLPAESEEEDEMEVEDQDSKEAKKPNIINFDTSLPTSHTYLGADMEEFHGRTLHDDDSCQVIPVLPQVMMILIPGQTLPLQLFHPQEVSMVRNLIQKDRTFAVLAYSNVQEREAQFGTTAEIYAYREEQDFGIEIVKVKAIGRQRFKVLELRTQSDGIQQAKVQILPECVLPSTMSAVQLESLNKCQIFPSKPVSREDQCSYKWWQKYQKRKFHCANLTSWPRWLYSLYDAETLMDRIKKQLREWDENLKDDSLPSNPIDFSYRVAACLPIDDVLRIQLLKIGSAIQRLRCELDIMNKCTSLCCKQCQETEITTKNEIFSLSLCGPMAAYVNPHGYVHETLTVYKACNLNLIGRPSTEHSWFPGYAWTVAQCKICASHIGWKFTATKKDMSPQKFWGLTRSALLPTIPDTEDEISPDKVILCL

[2] = target: T1, Protein cereblon/Tyrosine-protein kinase BTK; assay: PROTAC activity at CRBN/BTK in human JeKo-1 cells assessed as induction of BTK degradation at 100 nM incubated for 24 hrs by Western blotting analysis relative to control; type: cell-based
Target sequence in this assay (Q06187 2-659 limits assumed): as the sequence (Q06187 2-659 limits assumed) above
Target sequence in this assay (Q96SW2 whole entry partner): as the sequence (Q96SW2 whole entry partner) above

TMD8 = assay: Antiproliferative activity against human TMD8 cells assessed as inhibition of cell growth measured after 3 days by CCK-8 assay; type: functional, cell-based; settings: TMD8, 72 h
OCI-Ly10 = assay: Antiproliferative activity against human OCILY10 cells assessed as inhibition of cell growth measured after 3 days by CCK-8 assay; type: functional, cell-based; settings: OCI-Ly10, 72 h
JeKo-1 = assay: Antiproliferative activity against human JeKo-1 cells assessed as inhibition of cell growth measured after 3 days by CCK-8 assay; type: functional, cell-based; settings: JeKo-1, 72 h
[3] = target: T1, Protein cereblon/Tyrosine-protein kinase BTK; assay: PROTAC activity at CRBN/BTK in human JeKo-1 cells assessed as induction of BTK degradation by measuring maximal efficacy at 1.6 to 1000 nM incubated for 24 hrs by Western blotting analysis relative to control; type: cell-based; settings: dose 1.6-1000 nM
Target sequence in this assay (Q06187 2-659 limits assumed): as the sequence (Q06187 2-659 limits assumed) above
Target sequence in this assay (Q96SW2 whole entry partner): as the sequence (Q96SW2 whole entry partner) above

[4] = Metabolic stability in mouse liver microsomes assessed as half life at […] measured upto 60 mins in presence of NADPH by HPLC-MS/MS analysis; type: ADME, Microsome
[5] = target: T1, Protein cereblon/Tyrosine-protein kinase BTK; assay: PROTAC activity at CRBN/BTK in human JeKo-1 cells assessed as induction of BTK degradation incubated for 24 hrs by Western blotting analysis; type: cell-based
Target sequence in this assay (Q06187 whole entry): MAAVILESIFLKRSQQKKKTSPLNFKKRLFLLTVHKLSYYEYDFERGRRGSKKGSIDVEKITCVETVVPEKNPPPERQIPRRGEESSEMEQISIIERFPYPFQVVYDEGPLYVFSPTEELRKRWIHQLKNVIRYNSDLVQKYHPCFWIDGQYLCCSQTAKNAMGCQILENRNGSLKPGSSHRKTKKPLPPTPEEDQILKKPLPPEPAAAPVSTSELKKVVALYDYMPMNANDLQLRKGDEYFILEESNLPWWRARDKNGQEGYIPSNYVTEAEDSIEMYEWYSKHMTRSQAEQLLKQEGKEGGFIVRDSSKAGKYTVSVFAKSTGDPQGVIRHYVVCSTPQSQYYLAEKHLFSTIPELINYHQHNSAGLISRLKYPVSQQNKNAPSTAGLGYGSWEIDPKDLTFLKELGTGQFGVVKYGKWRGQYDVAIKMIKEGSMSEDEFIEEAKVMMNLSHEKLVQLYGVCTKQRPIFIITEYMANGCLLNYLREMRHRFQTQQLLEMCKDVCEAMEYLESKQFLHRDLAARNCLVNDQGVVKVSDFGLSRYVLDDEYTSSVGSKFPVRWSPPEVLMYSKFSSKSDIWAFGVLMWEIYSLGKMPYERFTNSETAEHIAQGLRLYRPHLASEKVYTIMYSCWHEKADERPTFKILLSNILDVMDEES
Target sequence in this assay (Q96SW2 whole entry): as the sequence (Q96SW2 whole entry partner) above

[6] = target: T1, Protein cereblon/Tyrosine-protein kinase BTK; assay: PROTAC activity at CRBN/BTK in human JeKo-1 cells assessed as induction of BTK degradation by measuring maximal efficacy at 1.6 to 5000 nM incubated for 24 hrs by Western blotting analysis relative to control; type: cell-based; settings: dose 1.6-5000 nM
Target sequence in this assay (Q06187 2-659 limits assumed): as the sequence (Q06187 2-659 limits assumed) above
Target sequence in this assay (Q96SW2 whole entry partner): as the sequence (Q96SW2 whole entry partner) above

BaF3 = assay: Antiproliferative activity against mouse BaF3 cells expressing BTK C481S mutant assessed as inhibition of cell growth measured after 3 days by CCK-8 assay; type: functional, cell-based; settings: BaF3, 72 h
[7] = target: T1, Protein cereblon/Tyrosine-protein kinase BTK; assay: PROTAC activity at CRBN/BTK in human JeKo-1 cells assessed as effect on GSPT1 levels at 1.6 to 1000 nM incubated for 24 hrs by Western blotting analysis; type: cell-based; settings: dose 1.6-1000 nM
Target sequence in this assay (Q06187 2-659 limits assumed): as the sequence (Q06187 2-659 limits assumed) above
Target sequence in this assay (Q96SW2 whole entry partner): as the sequence (Q96SW2 whole entry partner) above

[8] = target: T1, Protein cereblon/Tyrosine-protein kinase BTK; assay: PROTAC activity at CRBN/BTK in human JeKo-1 cells assessed as induction of BTK degradation pre-treated with N-((1S,4S)-4-((5-(2-chloro-4-phenoxybenzoyl)-7H-pyrrolo[2,3-d]pyrimidin-4-yl)amino)cyclohexyl)-2-(1-(2-(1-(6-fluoro-2-(1-methyl-2,6-dioxopiperidin-3-yl)-1-oxoisoindolin-5-yl)piperidin-4-yl)ethyl)piperidin-4-yl)acetamide for 2 hrs followed by compound treatment for 12 hrs by Western blotting analysis; type: cell-based
Target sequence in this assay (Q06187 2-659 limits assumed): as the sequence (Q06187 2-659 limits assumed) above
Target sequence in this assay (Q96SW2 whole entry partner): as the sequence (Q96SW2 whole entry partner) above

[9] = target: T1, Protein cereblon/Tyrosine-protein kinase BTK; assay: PROTAC activity at CRBN/BTK in human JeKo-1 cells assessed as induction of BTK degradation pre-treated with MG-132 for 2 hrs followed by compound treatment for 12 hrs by Western blotting analysis; type: cell-based
[10] = Drug concentration in BALB/c mouse plasma at 2 mg/kg, iv measured after 4 hrs by LC-MS/MS analysis; type: ADME, organism-based
[11] = target: T1, Protein cereblon/Tyrosine-protein kinase BTK; assay: PROTAC activity at CRBN/BTK in human JeKo-1 cells assessed as effect on […] levels at 1.6 to 1000 nM incubated for 24 hrs by Western blotting analysis; type: cell-based; settings: dose 1.6-1000 nM

| Compound | Activity [1] | Activity [2] | DC50 [5] | also measured |
| --- | --- | --- | --- | --- |
| O=C1CCC(N2C(=O)c3ccc(N4CCC(N[C@H]5CC[C@@H](Nc6ncnc7[nH]cc(C(=O)c8ccc(Oc9ccccc9)cc8Cl)c67)CC5)CC4)cc3C2=O)C(=O)N1 (some centres undefined) | 5% | 3% |  |  |
| O=C1CCC(N2C(=O)c3ccc(N4CCC(CN5CCC(N[C@H]6CC[C@@H](Nc7ncnc8[nH]cc(C(=O)c9ccc(Oc%10ccccc%10)cc9Cl)c78)CC6)CC5)CC4)cc3C2=O)C(=O)N1 (some centres undefined) | 62% | 51.5% |  |  |
| O=C1CCC(N2C(=O)c3ccc(N4CCC(N5CCC(CN[C@H]6CC[C@@H](Nc7ncnc8[nH]cc(C(=O)c9ccc(Oc%10ccccc%10)cc9Cl)c78)CC6)CC5)CC4)cc3C2=O)C(=O)N1 (some centres undefined) | 42.5% | 39% |  |  |
| O=C1CCC(N2Cc3ccc(N4CCC(CCN5CCC(CC(=O)N[C@H]6CC[C@@H](Nc7ncnc8[nH]cc(C(=O)c9ccc(Oc%10ccccc%10)cc9Cl)c78)CC6)CC5)CC4)cc3C2=O)C(=O)N1 (some centres undefined) | 87% | 83% | 7.4 nM | IC50 (TMD8): 9.3 nM; IC50 (OCI-Ly10): 5.9 nM; IC50 (JeKo-1): 34.4 nM; Emax [3]: 90.6%; half-life [4]: > 145 min |
| O=C1CCC(N2C(=O)c3cc(F)c(N4CCC(CCN5CCC(CC(=O)N[C@H]6CC[C@@H](Nc7ncnc8[nH]cc(C(=O)c9ccc(Oc%10ccccc%10)cc9Cl)c78)CC6)CC5)CC4)cc3C2=O)C(=O)N1 (some centres undefined) | 88.5% | 87% | 9.3 nM | IC50 (TMD8): 47 nM; Emax [6]: 93.6%; IC50 (OCI-Ly10): 28.2 nM; IC50 (JeKo-1): 116 nM; half-life [4]: 55.4 min |
| O=C1CCC(N2C(=O)c3ccc(N4CCC(CCN5CCC(CN[C@H]6CC[C@@H](Nc7ncnc8[nH]cc(C(=O)c9ccc(Oc%10ccccc%10)cc9Cl)c78)CC6)CC5)CC4)cc3C2=O)C(=O)N1 (some centres undefined) | 69.5% | 76% | 100 nM |  |
| C=CC(=O)N1CCC[C@@H](n2nc(-c3ccc(Oc4ccccc4)cc3)c3c(N)ncnc32)C1 [IBRUTINIB] |  |  |  | IC50 (TMD8): 4.7 nM; IC50 (BaF3): 1550 nM; IC50 (OCI-Ly10): 4.5 nM; IC50 (JeKo-1): 79.8 nM |
| O=C1CCC(N2C(=O)c3ccc(N4CCC(CN5CCC(C(=O)N[C@H]6CC[C@@H](Nc7ncnc8[nH]cc(C(=O)c9ccc(Oc%10ccccc%10)cc9Cl)c78)CC6)CC5)CC4)cc3C2=O)C(=O)N1 (some centres undefined) | 50% | 61% |  |  |
| O=C1CCC(N2C(=O)c3ccc(N4CCC(CN5CC(CN[C@H]6CC[C@@H](Nc7ncnc8[nH]cc(C(=O)c9ccc(Oc%10ccccc%10)cc9Cl)c78)CC6)C5)CC4)cc3C2=O)C(=O)N1 (some centres undefined) | 38.5% | 29.5% |  |  |
| O=C1CCC(N2C(=O)c3ccc(N4CCC(CC(=O)N5CCC(CN[C@H]6CC[C@@H](Nc7ncnc8[nH]cc(C(=O)c9ccc(Oc%10ccccc%10)cc9Cl)c78)CC6)CC5)CC4)cc3C2=O)C(=O)N1 (some centres undefined) | 57% | 45.5% |  |  |
| O=C1CCC(N2C(=O)c3ccc(N4CC(N5CCC(CN[C@H]6CC[C@@H](Nc7ncnc8[nH]cc(C(=O)c9ccc(Oc%10ccccc%10)cc9Cl)c78)CC6)CC5)C4)cc3C2=O)C(=O)N1 (some centres undefined) | 21% | 30% |  |  |
| O=C1CCC(N2C(=O)c3ccc(N4CCC(CN5CCC(CC(=O)N[C@H]6CC[C@@H](Nc7ncnc8[nH]cc(C(=O)c9ccc(Oc%10ccccc%10)cc9Cl)c78)CC6)CC5)CC4)cc3C2=O)C(=O)N1 (some centres undefined) | 73.5% | 79.5% | 24 nM |  |
| O=C1CCC(N2C(=O)c3ccc(N4CCC(CN5CCC(CCN[C@H]6CC[C@@H](Nc7ncnc8[nH]cc(C(=O)c9ccc(Oc%10ccccc%10)cc9Cl)c78)CC6)CC5)CC4)cc3C2=O)C(=O)N1 (some centres undefined) | 77% | 57% |  |  |
| O=C1CCC(N2Cc3cc(N4CCC(CCN5CCC(CC(=O)N[C@H]6CC[C@@H](Nc7ncnc8[nH]cc(C(=O)c9ccc(Oc%10ccccc%10)cc9Cl)c78)CC6)CC5)CC4)ccc3C2=O)C(=O)N1 (some centres undefined) | 86% | 80.4% | 10.1 nM | IC50 (TMD8): 15.5 nM; IC50 (OCI-Ly10): 15.7 nM; Emax [3]: 90.1%; half-life [4]: 52 min |
| O=C1CCC(N2C(=O)c3ccc(N4CCC(CN5CCCC(N[C@H]6CC[C@@H](Nc7ncnc8[nH]cc(C(=O)c9ccc(Oc%10ccccc%10)cc9Cl)c78)CC6)C5)CC4)cc3C2=O)C(=O)N1 (some centres undefined) | 74% | 31.5% |  |  |
| O=C1CCC(N2C(=O)c3cccc(NCCOCCOCCOCCOCCOCCNC(=O)N[C@H]4CC[C@@H](Nc5ncnc6[nH]cc(C(=O)c7ccc(Oc8ccccc8)cc7Cl)c56)CC4)c3C2=O)C(=O)N1 (some centres undefined) | 88.6% | 86.5% | 20 nM | IC50 (BaF3): 1760 nM; Emax [3]: 93.8%; half-life [4]: 1.3 min |
| O=C1CCC(N2C(=O)c3ccc(N4CCC(N5CCC(N[C@H]6CC[C@@H](Nc7ncnc8[nH]cc(C(=O)c9ccc(Oc%10ccccc%10)cc9Cl)c78)CC6)CC5)CC4)cc3C2=O)C(=O)N1 (some centres undefined) | 18.5% | 15% |  |  |
| O=C(c1ccc(Oc2ccccc2)cc1Cl)c1c[nH]c2ncnc(N[C@@H]3CC[C@@H](CO)OC3)c12 [NEMTABRUTINIB] |  |  |  | IC50 (BaF3): 548 nM; IC50 (JeKo-1): 66.1 nM |
| O=C1CCC(N2C(=O)c3ccc(N4CCC(CCN5CCC(CC(=O)N[C@H]6CC[C@@H](Nc7ncnc8[nH]cc(C(=O)c9ccc(Oc%10ccccc%10)cc9Cl)c78)CC6)CC5)CC4)cc3C2=O)C(=O)N1 (some centres undefined) | 82.5% | 85% | 8.8 nM | IC50 (TMD8): 82.1 nM; Emax [6]: 94.1%; IC50 (OCI-Ly10): 15.4 nM; IC50 (JeKo-1): 59.5 nM; half-life [4]: 86 min |
| O=C1CCC(N2C(=O)c3ccc(N4CCC(F)(CN5CCC(CC(=O)N[C@H]6CC[C@@H](Nc7ncnc8[nH]cc(C(=O)c9ccc(Oc%10ccccc%10)cc9Cl)c78)CC6)CC5)CC4)cc3C2=O)C(=O)N1 (some centres undefined) | 26% | 28.5% |  |  |
| O=C1CCC(N2C(=O)c3ccc(N4CCC(CN5CCC(CN[C@H]6CC[C@@H](Nc7ncnc8[nH]cc(C(=O)c9ccc(Oc%10ccccc%10)cc9Cl)c78)CC6)CC5)CC4)cc3C2=O)C(=O)N1 (some centres undefined) | 63.5% | 48% |  |  |
| O=C1CCC(N2Cc3cc(N4CCC(CCN5CCC(CC(=O)N[C@H]6CC[C@@H](Nc7ncnc8[nH]cc(C(=O)c9ccc(Oc%10ccccc%10)cc9Cl)c78)CC6)CC5)CC4)c(F)cc3C2=O)C(=O)N1 (some centres undefined) | 89% | 91% | 7 nM | IC50 (TMD8): 4.5 nM; Activity [7]: inactive; Activity [8]: inactive; IC50 (BaF3): 86 nM; IC50 (OCI-Ly10): 2.3 nM; IC50 (JeKo-1): 38.1 nM; Emax [3]: 96.5%; Activity [9]: inactive; half-life [4]: > 145 min; concentration at 4 h [10]: > 10 nM; Activity [11]: inactive |
| O=C1CCC(N2C(=O)c3ccc(N4CCC(CN5CC(N[C@H]6CC[C@@H](Nc7ncnc8[nH]cc(C(=O)c9ccc(Oc%10ccccc%10)cc9Cl)c78)CC6)C5)CC4)cc3C2=O)C(=O)N1 (some centres undefined) | 24% | 32% |  |  |
